Reference: patent publication US20130287918A1, “MICROBICIDAL COMPOSITION” (DUPONT NUTRITION DIOSCIENCES APS, priority 2010, published 2013)

Columns and labels:
Assay type in all cases: cell-based
[1] = test system: pool of 4 yeast species (Candida tropicalis DCS 604, Zygosaccharomyces bailii DCS 1167 and DCS 1172, Pichia spp DCS 1175); assay: BBQ sauce challenge study, yeast count on YGC agar; conditions: for Cell counts on YGC-agar (yeast growth): BBQ sauce 20° C., Potassium Sorbate 0.1%
Method: Samples of the BBQ sauce (formula in table 9) with and without the experimental blend were produced in the Danisco Culinary Application Laboratory, Brabrand.
Each batch was split (scheme table 8) in probes of 90 gram and placed in sterile jars. 42 probes of each batch were inoculated with the desired level of yeast and 5 probes of each batch were inoculated with mould spores, respectively at a targeted inoculation rate of 500 to 1000 CFU/g.
(§1) The viscous products were thoroughly mixed (2 minutes) within 10 minutes of inoculation to ensure that the inoculum was evenly distributed throughout the product. One sample remained un-inoculated and was used as negative control to monitor the native contamination flora. All samples were incubated at ambient temperature (20° C.) and assayed for yeast, plated on an appropriate yeast medium, until confirmed failure (≧1.0E+06 CFU/g) or until visible mould growth, respectively. In parallel, the growth of lactic acid bacteria and total cell count were monitored on MRS and PCA in all the batches and the non-inoculated blind, respectively.
(§2) In total 8 strains, from available from Danisco's Culture Collection (DCS) (Danisco A/S, Brabrand, Denmark) were employed as one yeast and one mould pool in the respective BBQ sauce. Originally, they were isolated e.g. from spoiled ketchup, mayonnaise. Salsa dressing or obtained from official culture collections such as DMSZ.
(§3) Before each experiment, a stock culture of each yeast, maintained at −86° C. in suitable broth containing glycerol 50% (v/v), was propagated through two consecutive growth cycles in suitable media (YGC-agar (VWR) pH 5.1+0.2; YM Broth (Becton, Dickinson and company) at pH 6.0±0.2 at and temperature (25° C.). The overnight cultures are diluted in saline solution to obtain working cultures. A cocktail of the yeasts was generated by adding equal cell counts of each culture into a sterile container and mixed appropriately. The yeast cocktail was diluted and inoculated into the product in order to achieve the final desired concentration. Pool counts were verified via plate count.
The BBQ sauces were assayed at time zero, day 2, day 5, day 12, weekly until week 10 (day 68) and bi-weekly thereafter until week 19 (day 131). CFU/g was detected for 3 samples from each batch inoculated with yeast. Before each sampling (closed jar), the sample was thoroughly mixed. 10 gram sample were aseptically pulled from each jar and diluted with peptone water. Each sample was stomached (1 min, normal setting) plated in duplicate onto YGC agar (VWR) and MRS (VWR), and incubated at 25° C. for 5 days and 37° C. for 3 days, respectively.

[2] = test system: pool of 4 yeast species (Candida tropicalis DCS 604, Zygosaccharomyces bailii DCS 1167 and DCS 1172, Pichia spp DCS 1175); assay: Salsa sauce fresh challenge study, yeast count on YGC agar; conditions: Salsa sauce 4° C., FP1000-D1 1%, FP1000-D2 1%, MG200 1%, Potassium Sorbate 0.1%
Description: Samples of the Salsa sauce (formula in table 17) with and without the experimental blend were produced. […] It needs to be mentioned that the Salsa sauce was not pasteurized.
(§4) Each batch was split (scheme table 15) in probes of 90 gram and placed in sterile jars. 21 probes of each batch were inoculated with the desired level of yeast and 5 probes of each batch were inoculated with mould spores, respectively at a targeted inoculation rate of 300 to 800 CFU/g.
as §1, with “incubated in the dark” for “incubated”, “chilled” for “ambient”, “(4°” for “(20°”
as §2, with “strains,” for “strains, from”, “1” for “one”, “Salsa” for “BBQ”
as §3, with “Company)” for “company)”
The Salsa sauces were assayed at time zero, day 3, day 7, day 14 and were plated bi-weekly thereafter until day 92. CFU/g was detected for 3 samples from each batch inoculated with yeast. Before each sampling (closed jar), the sample was thoroughly mixed, 10 gram sample were aseptically pulled from each jar and diluted with peptone water. Each sample was stomached (1 min, normal setting) plated in duplicate onto YGC agar (VWR) and MRS (VWR), and incubated at 25° C. for 5 days and 37° C. for 3 days, respectively.

[3] = test system: pool of 4 mould species (Penicillium sp DCS 1380, Aspergillus versicolor DCS 1069, Aspergillus parasiticus DCS 709, Mucor sp DCS 1140); assay: Salsa sauce fresh challenge study, mould growth; conditions: Salsa sauce 4° C.; blends 1%
Method: as §4
as §1, with “incubated in the dark” for “incubated”, “chilled” for “ambient”, “(4°” for “(20°”
Mould spores were prepared as follows: approx. 2 ml of sterile demineralised water was used to wash the spores off an out-grown mould cultivar (minimum 5 day old plate). This suspension is transferred to a sterile container. Pool counts were verified via plate count.
5 samples from each batch inoculated with mould were visually analysed for mould growth.

SMILES: C/C=C/C=C/C(=O)[O-].[K+] [Potassium Sorbate, potassium sorbate]
- initial reduction of the inoculated cell load ([1]; BBQ sauce, YM10 1% and 0.5%, potassium sorbate): 3 log
- Cell counts on YGC-agar (yeast growth) ([1]; day 0, YM10 1%, MG200 1%, Competitor product 1.25%): 6.07E+02 CFU/g
- Cell counts on YGC-agar (yeast growth) ([1]; day 2, YM10 1%, MG200 1%, Competitor product 1.25%): 1.47E+02 CFU/g
- Cell counts on YGC-agar (yeast growth) ([1]; day 5, YM10 1%, MG200 1%, Competitor product 1.25%): 2.50E+01 CFU/g
- Cell counts on YGC-agar (yeast growth) ([1]; day 12, YM10 1%, MG200 1%, Competitor product 1.25%): 1.00E+00 CFU/g
- Cell counts on YGC-agar (yeast growth) ([1]; day 19, YM10 1%, MG200 1%, Competitor product 1.25%): 1.00E+00 CFU/g
- Cell counts on YGC-agar (yeast growth) ([1]; day 26, YM10 1%, MG200 1%, Competitor product 1.25%): 1.00E+00 CFU/g
- Cell counts on YGC-agar (yeast growth) ([1]; day 41, YM10 1%, MG200 1%, Competitor product 1.25%): 1.00E+00 CFU/g
- Cell counts on YGC-agar (yeast growth) ([1]; day 49): 1.00E+00 CFU/g
- Cell counts on YGC-agar (yeast growth) ([1]; day 55): 1.00E+00 CFU/g
- Cell counts on YGC-agar (yeast growth) ([1]; day 68): 1.00E+00 CFU/g
- Cell counts on YGC-agar (yeast growth) ([1]; day 82): 1.00E+00 CFU/g
- Cell counts on YGC-agar (yeast growth) ([1]; day 104): 1.00E+00 CFU/g
- Cell counts on YGC-agar (yeast growth) ([1]; day 117): 1.00E+00 CFU/g
- Cell counts on YGC-agar (yeast growth) ([1]; day 131): 2.50E+01 CFU/g
- Cell counts on YGC-agar (yeast growth) ([2]; day 0): 4.75E+02 CFU/g
- Cell counts on YGC-agar (yeast growth) ([2]; day 2): 2.50E+02 CFU/g
- Cell counts on YGC-agar (yeast growth) ([2]; day 5): 1.00E+02 CFU/g
- Cell counts on YGC-agar (yeast growth) ([2]; day 7): 6.80E+01 CFU/g
- Cell counts on YGC-agar (yeast growth) ([2]; day 14): 4.80E+01 CFU/g
- Cell counts on YGC-agar (yeast growth) ([2]; day 28): 1.45E+02 CFU/g
- Cell counts on YGC-agar (yeast growth) ([2]; day 41): 3.30E+01 CFU/g
- Cell counts on YGC-agar (yeast growth) ([2]; day 55): 3.20E+01 CFU/g
- Cell counts on YGC-agar (yeast growth) ([2]; day 93): 3.30E+01 CFU/g
- control of mould outgrowth (plate count in yeast inoculated samples) [3]: 12 weeks
